According to PubChem BioAssay (NCI):
Several values for one entry are separate records, joined by “and”; a condition that tells them apart may be missing. Equal entries are not always repeated.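 A five-concentration, 48-hour dose response in 96-well plates underlies each endpoint, interpolated linearly between surrounding concentrations. GI50 = concentration required for 50% inhibition of growth. Definition used: TGI = concentration required for complete inhibition of growth.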

How the values were obtained:
Assay in all cases: NCI tumour cell line growth inhibition, 48 h
786-0 renal = tested on: 786-0 renal
A549 NSCLC = tested on: A549 NSCLC
HOP-62 NSCLC = tested on: HOP-62 NSCLC
HS 578T breast = tested on: HS 578T breast
MCF7 breast = tested on: MCF7 breast
MDA-MB-435 = tested on: MDA-MB-435
OVCAR-3 ovarian = tested on: OVCAR-3 ovarian
SF-268 CNS = tested on: SF-268 CNS
SK-MEL-2 melanoma = tested on: SK-MEL-2 melanoma
SN12C renal = tested on: SN12C renal

Structure (SMILES) | GI50 (786-0 renal) | TGI (786-0 renal) | GI50 (A549 NSCLC) | TGI (A549 NSCLC) | GI50 (HOP-62 NSCLC) [µM] | TGI (HOP-62 NSCLC) [µM] | GI50 (HS 578T breast) | TGI (HS 578T breast) | GI50 (MCF7 breast) | TGI (MCF7 breast) | GI50 (MDA-MB-435) | TGI (MDA-MB-435) | GI50 (OVCAR-3 ovarian) | TGI (OVCAR-3 ovarian) | GI50 (SF-268 CNS) | TGI (SF-268 CNS) | GI50 (SK-MEL-2 melanoma) | TGI (SK-MEL-2 melanoma) | GI50 (SN12C renal) | TGI (SN12C renal)
CC(C)(C)OC(=O)NCCNC1=CC(=O)c2nc3ccccc3c3ccnc1c23 | 28.5 µM | > 100 µM | 18.4 µM | > 100 µM | 24.4 | > 100 | 25.5 µM | 73.8 µM | 7.42 µM | 24.4 µM | 15.7 µM | 37.7 µM | 13.8 µM | 67 µM | 18.7 µM | 77.1 µM | 28.4 µM | 85.1 µM | 17.7 µM | 55.6 µM
Cc1ccccc1NC(=S)Nc1ccccn1 | > 100 µM | > 100 µM | > 100 µM | > 100 µM | > 100 | > 100 | > 100 µM | > 100 µM | > 100 µM | > 100 µM | > 100 µM | > 100 µM | > 100 µM | > 100 µM | > 100 µM | > 100 µM | > 100 µM | > 100 µM | > 100 µM | > 100 µM
COC1=CC(c2ccc[nH]2)=N/C1=C\c1[nH]c(C)c(C(=O)OCc2ccccc2)c1C | 0.0666 µM | 1.08 µM | 0.0826 µM | 4.68 µM | 0.314 | 2.77 | 0.0804 µM | 0.662 µM | 0.0894 µM | 0.836 µM | 0.0557 µM | 1.31 µM | 0.0621 µM | 0.645 µM | 0.11 µM | 1.94 µM | 0.0445 µM | 0.196 µM | 0.0849 µM | 1.88 µM
C[n+]1c(/C=C\C=C\N2CCCCC2)sc2ccccc21 | 2.55 µM | > 36.6 µM | 0.413 µM | 3.07 µM | 2.26 | > 38.2 | 1.11 µM | 22.5 µM | 0.346 µM | 11.8 µM | 0.266 µM | 1.96 µM | 0.243 µM | 5.81 µM | 0.457 µM | 14.8 µM | 0.634 µM | 14.3 µM | 0.716 µM | 21.2 µM
COc1cccc(C2CC(c3cc(OC)c(OC)c(OC)c3)=NN2)c1 (stereo not given) | 13.7 µM | 56.4 µM | 21.7 µM | 87.2 µM | 8.99 | 71.4 | 15.5 µM | 49.4 µM | 3.85 µM | 26.1 µM | 2.79 µM | 9.39 µM | 20.2 µM | 76.3 µM | 13.6 µM | 81.2 µM | 13.2 µM | 54.6 µM | 22.7 µM | > 100 µM
COc1cc2c(cc1OC)C13CCN4C=C5CCOC6CC(=O)N2C1C6C5CC43 (stereo not given) |  | > 100 µM |  | > 100 µM |  | > 100 |  | > 100 µM |  | > 100 µM |  | > 100 µM |  | > 100 µM |  | > 100 µM |  | > 100 µM |  | > 100 µM
COc1ccc2c(c1)C(=O)c1c-2n(CCCN)c(=O)c2ccccc12 | 0.0196 µM | 0.31 µM | < 0.01 µM | 0.0689 µM | < 0.0152 | 0.0942 | 0.649 µM | 3.09 µM | < 0.01 µM | 1.07 µM | 0.146 µM | 1.61 µM | 0.0957 µM | 0.798 µM | 0.045 µM | 1.09 µM | 0.82 µM | 2.67 µM | < 0.016 µM | 0.118 µM
COC(=O)[C@@H](NC(=O)NC(=O)NC(=O)CI)C(C)C | 11.4 µM | 23.5 µM | 22.4 µM | 41.5 µM | 18.3 | 33.7 | 26.4 µM | 74.6 µM | 3.03 µM | 12.7 µM | 9.97 µM | 21.7 µM | 2.23 µM | 4.78 µM | 15.1 µM | 32.7 µM | 18.9 µM | 36.5 µM | 5.46 µM | 25.7 µM
C=C(CNC(=O)Nc1ccc(-c2ccccc2)cc1)c1ccc(C(=O)Nc2ccccc2N)cc1 | > 100 µM | > 100 µM | > 100 µM | > 100 µM | 49.1 | > 100 | 81.7 µM | > 100 µM | > 100 µM | > 100 µM | 89.8 µM | > 100 µM | > 100 µM | > 100 µM | > 100 µM | > 100 µM | > 100 µM | > 100 µM | > 100 µM | > 100 µM
CN1CCN(c2ccc(C(=O)Nc3n[nH]c4ccc(Cc5cc(F)cc(F)c5)cc34)c(NC3CCOCC3)c2)CC1 | 1.41 µM and 1.31 µM | 2.99 µM and 2.62 µM | 2.5 µM and 1.3 µM | > 10 µM and 2.72 µM | 2.66 | > 10 | 1.23 µM and 1.21 µM | 4.37 µM and 3.22 µM | 0.983 µM and 0.485 µM | 5.73 µM and 1.93 µM | 1.39 µM and 1.49 µM | 2.86 µM and 3.13 µM | 3.33 µM and 1.47 µM | > 10 µM and 2.84 µM | 2.25 µM and 1.45 µM | > 10 µM and 2.87 µM | 4.5 µM and 1.86 µM | > 10 µM and 3.53 µM | 2.6 µM and 1.34 µM | > 10 µM and 2.93 µM
Nc1ccn(C2OC(CO)C(O)C2F)c(=O)n1 (stereo not given) | > 5000 µM | > 5000 µM | > 5000 µM | > 5000 µM | > 5000 | > 5000 | > 5000 µM | > 5000 µM | 2.98 µM | > 5000 µM | 867 µM and > 5000 µM | > 5000 µM | > 5000 µM | > 5000 µM | > 5000 µM | > 5000 µM | > 5000 µM | > 5000 µM | > 5000 µM | > 5000 µM
Cc1c2cnccc2c(C)c2c1c1cc(C3OCCCO3)ccc1n2C | 0.457 µM | 3.25 µM | 0.461 µM | 2.5 µM | 0.286 | 1.82 | 0.416 µM | 2.83 µM | 0.255 µM | 1.35 µM | 0.411 µM | 1.55 µM | 0.419 µM | 2 µM | 0.268 µM | 1.71 µM | 0.314 µM | 1.22 µM | 0.192 µM | 1.3 µM
CN(C)CCCOc1ccccc1NC1=C(Cl)C(=O)C(Nc2ccccc2OCCCN(C)C)=C(Cl)C1=O | 0.661 µM | 1.91 µM | 1.51 µM | 2.94 µM | 1.66 | 3.31 | 1.83 µM | 5.46 µM | 0.175 µM | 0.398 µM | 0.636 µM | 1.44 µM | 0.172 µM | 0.319 µM | 1.03 µM | 2.61 µM | 1.83 µM | 3.58 µM | 0.165 µM | 0.319 µM
Cc1c2cc[nH]c(=O)c2c(C)c2c1[nH]c1cc(OCCN3CCN(C)CC3)ccc12 | 0.946 µM | 5.09 µM | 0.452 µM | 1.96 µM | 0.469 | 3.24 | 2.01 µM | 9.23 µM | 0.577 µM | 6.73 µM | 1.06 µM | 2.43 µM | 1.24 µM | 7.7 µM | 0.74 µM | 7.97 µM | 1.52 µM | 3.43 µM | 0.389 µM | 3.31 µM
Cn1cc(-c2nonc2-c2c[nH]c3ccccc23)c2ccccc21 | 0.611 µM | 7.94 µM | 0.728 µM | 22.1 µM | 0.47 | 17 | 0.298 µM | 2.32 µM | 0.329 µM | 15.3 µM | 0.182 µM | 0.494 µM | 0.323 µM | 2.01 µM | 0.725 µM | 13.2 µM | 0.496 µM | 14.6 µM | 0.477 µM | 12.1 µM
Cc1[nH]ncc1-c1cc2nc(C3CC4CCN3CC4)[nH]c(=O)c2s1 (stereo not given) | 2.92 µM | > 100 µM | 2.67 µM | > 100 µM | 2.83 | > 100 | 3.87 µM | > 100 µM | 2.58 µM | > 100 µM | 4.45 µM | 30 µM | 3.74 µM | > 100 µM | 3.8 µM | > 100 µM | 8.8 µM | 29.5 µM | 3.31 µM | > 100 µM
